Assay [1] is described as follows: Inhibition of calf brain tubulin polymerization. Details: species or system Bos taurus.
Assay [2] has as its system NCI-H460. The experiment in a line: Growth inhibition of human NCI-H460 after 48 hrs by SRB assay. It counts as functional. The conditions noted are these: NCI-H460, 48 h.
Assay [3] has as its system DU-145. Briefly: Growth inhibition of human DU145 after 48 hrs by SRB assay. The conditions noted are these: DU-145, 48 h. Type of assay: functional.
The subject of assay [4] is SK-OV-3. The experiment in a line: Growth inhibition of human SK-OV-3 after 48 hrs by SRB assay. Type of assay: functional. The note with it: SK-OV-3, 48 h.

The record followed here is ChEMBL document CHEMBL1140060, “Design, synthesis and biological evaluation of dihydronaphthalene and benzosuberene analogs of the combretastatins as inhibitors of tubulin polymerization in cancer chemotherapy” (Bioorg Med Chem, 2008).

`COc1ccc(C(=O)C2=CCCCc3c2cc(OC)c(OC)c3OC)cc1O` yielded an IC50 in assay [1] greater than 40000 nM. For the same compound, the GI50 in assay [2] and in assay [3] was greater than 10000 nM throughout.

For the compound `COc1ccc(C(=O)C2=CCCc3c2cc(OC)c(OC)c3OC)c(O)c1O`, the IC50 in assay [1] was greater than 40000 nM. Moreover, the GI50 in assay [2] turned out to be 2800 nM; in assay [3], 3400 nM; in assay [4] it was 1400 nM.

In assay [1], `COc1ccc2c(c1)CCCC=C2c1cc(OC)c(OC)c(OC)c1` displayed an IC50 of 1400 nM. The GI50 worked out at 51 nM in assay [2], 27 nM in assay [3] and 52 nM in assay [4].

As to `COc1ccc2c(c1O)CCCC(c1cc(OC)c(OC)c(OC)c1)=C2`, in assay [1], the IC50 is greater than 40000 nM. In addition, the GI50 in assay [2] was 1200 nM; in assay [3], 440 nM; in assay [4] it was 270 nM.

`COc1ccc(C(=O)C2=CCCCc3c2cc(OC)c(OC)c3OC)c(O)c1O` registered an IC50 in assay [1] greater than 40000 nM. Also, the 50% growth inhibitory concentration (GI50) in assay [2] and in assay [3] was greater than 10000 nM in each case.

For the compound `COc1ccc2c(c1)CCCC(c1cc(OC)c(OC)c(OC)c1)=C2`, in assay [1], the IC50 is greater than 40000 nM. Further, the 50% growth inhibitory concentration (GI50) in assay [2] was found to be 470 nM; in assay [3] it was 550 nM; in assay [4], 440 nM.

The compound `COc1ccc(C(=O)C2=CCCc3c2cc(OC)c(OC)c3OC)cc1O` came in with an IC50 in assay [1] of 24000 nM. Moreover, the GI50 in assay [2] was determined as 6000 nM; in assay [3] it was 3100 nM.

In assay [1], `COc1cc2c(cc1O)C(=O)C1c3cc(OC)c(OC)c(OC)c3CCC21` (stereo not given) displayed an IC50 greater than 40000 nM. Also, the GI50 in assay [2] and in assay [3] was greater than 10000 nM throughout.

In the case of `COc1ccc(CC2CCCCc3c2cc(OC)c(OC)c3OC)c(O)c1O` (stereo not given), in assay [1], 7400 nM corresponded to half-maximal inhibition (IC50). The GI50 in assay [2] and in assay [3] was greater than 10000 nM each time.

Turning to `COc1ccc2c(c1O)CCCC=C2c1cc(OC)c(OC)c(OC)c1`, the IC50 in assay [1] was 1700 nM. The GI50 was 0.028 nM in assay [2], 0.0032 nM in assay [3] and less than 0.03 nM in assay [4].

In the case of `COc1ccc(/C=C\c2cc(OC)c(OC)c(OC)c2)cc1O` [COMBRETASTATIN A4], the GI50 worked out at 2 nM in assay [2], 2 nM in assay [3] and 0.13 nM in assay [4].

Take `COc1ccc(/C=C\c2cc(OC)c(OC)c(OC)c2)c(O)c1O` [COMBRETASTATIN A-1]: the figures for the GI50 in assay [2] and in assay [3] were 2200 nM and 510 nM, respectively.
